Test [1] concerns the target T1, RORγt (Homo sapiens, UniProt P51449).
T1 sequence (P51449 1-497 isoform P51449-2): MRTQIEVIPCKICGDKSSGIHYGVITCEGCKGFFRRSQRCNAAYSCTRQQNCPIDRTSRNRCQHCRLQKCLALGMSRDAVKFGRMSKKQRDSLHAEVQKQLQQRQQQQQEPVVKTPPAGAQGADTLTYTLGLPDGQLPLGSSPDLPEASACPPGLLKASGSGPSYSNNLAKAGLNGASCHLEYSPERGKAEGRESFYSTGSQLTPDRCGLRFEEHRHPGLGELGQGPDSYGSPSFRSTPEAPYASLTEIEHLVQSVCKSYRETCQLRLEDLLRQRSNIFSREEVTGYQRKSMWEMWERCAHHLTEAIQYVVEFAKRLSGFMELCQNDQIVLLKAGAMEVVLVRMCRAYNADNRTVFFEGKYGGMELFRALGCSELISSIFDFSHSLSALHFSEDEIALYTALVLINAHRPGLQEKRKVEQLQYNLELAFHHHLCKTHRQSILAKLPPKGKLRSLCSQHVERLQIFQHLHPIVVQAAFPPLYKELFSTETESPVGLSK
Kind of test: RORγt binding test using fluorescent-labeled synthetic ligand (TR-FRET). The note with it: read-out: binding inhibitory rate of fluorescent-labeled synthetic ligand to RORγt at test compound 1 μM. The protocol: RORγt Binding Test using Fluorescent-Labeled Synthetic Ligand
The binding activity of the test compound to RORγt was measured by a time resolved fluorescence resonance energy transfer method (TR-FRET) utilizing histidine-tagged RORγt, fluorescent-labeled synthetic ligand and terbium-labeled anti-histidine tag antibody (Invitrogen). First, a test compound diluted with an assay buffer (20 mM Tris-HCl (pH 7.5), 100 mM NaCl, 1 mM DTT, 0.1% BSA) was added to a 384 well plate by 3 μL. Then, RORγt diluted with an assay buffer to 240 nM was added by 3 μL, after which fluorescent-labeled synthetic ligand diluted with the assay buffer to 12 μM was added by 3 μL, and the mixture was stood at room temperature for 20 min. Thereafter, a terbium-labeled anti-histidine tag antibody diluted with the assay buffer to 8 nM was added by 3 μL. The mixture was stood at room temperature for 20 min, and fluorescence intensity (excitation wavelength 320 nm, fluorescence wavelength 520 nm, delay time 100 microseconds) was measured by Envision (PerkinElmer).
For orientation: In TR-FRET formats the signal depends on donor and acceptor labels being close together.

For test [2], the target named is T1, RORγt. Kind of test: Cofactor recruitment test (Alpha Screen, biotinylated SRC-1 peptide). It is filed as biochemical. The note with it: read-out: signal value inhibitory rate at test compound 1 μM. The protocol:
Cofactor Recruitment Test
Cofactor recruitment test was performed by Alpha Screen (Histidine Detection Kit, PerkinElmer) method. First, a test compound was diluted with an assay buffer (50 mM Tris-HCl (pH 7.5), 50 mM KCl, 1 mM DTT, 0.1% BSA) and added to a 384 well plate by 5 μL. […] The mixture was stood in a dark place for 1 hr, and the signal value was measured by Envision (PerkinElmer).

Test [3] deals with T1, RORγt. Kind of test: Jurkat reporter test (human IL-17 ROR response element luciferase, RORγt vector). The note with it: test compound 3 μM, Jurkat cells, read-out: luminescence level inhibitory rate at test compound 3 μM. It counts as cell-based. The protocol:
The Jurkat cells used for the reporter test were cultured in a culture medium (RPMI (Invitrogen), 10% FCS (AusGeneX), 100 U/mL penicillin, 100 μg/mL streptomycin). On the day of the test, 4×10^7 cells were recovered by a centrifugal operation (1000 rpm, 5 min.) and suspended in PBS (phosphate buffered saline) (Invitrogen). Thereafter, the cells were recovered again by a centrifugal operation, and suspended in 2 mL of R buffer (NEON transfection kit, Invitrogen). […] Gene transfer was performed by Electroporation apparatus (NEON, Invitrogen) under the conditions of pulse voltage 1350 V, interval 10 milliseconds, number of times 3. The cells after gene transfer were suspended in 40 mL of a reaction medium (RPMI, 10% Lipid reduced FCS (HyClone), 10 mM HEPES (pH 7.5), 100 U/mL penicillin, 100 μg/mL streptomycin, 5 μM lovastatin), and plated in a 96 well plate by 90 μL. A test compound diluted with the reaction medium was added by 10 μL, and the cells were cultured overnight in an incubator. Bright-Glo (Promega) was added by 100 μL, and the mixture was stirred at room temperature for 10 min, and the luminescence level was measured by Envision (PerkinElmer).

The test system of the next test is IL-17A gene expression. Put plainly: Effect on IL-23-induced cytokine expression in mice. It counts as in vivo, mouse. The note with it: 10 mg/kg oral, 30 min before and 8 hr after IL-23; ear of Balb/c mice; versus the negative control group. The protocol:
Effect on IL-23-Induced Cytokine Expression in Mice
A mouse IL-23 solution (500 ng/10 μL, prepared by Takeda Pharmaceutical Company Limited) or PBS (10 μL, negative control group) was administered intradermally in the ear of Balb/c mice (Charles River Japan, male, 7 weeks old). Twenty-four hr after administration, the ear was resected under isoflurane anesthesia. The test compound was suspended in 0.5% methylcellulose and administered orally 30 min before and 8 hr after IL-23 administration.
RNA extraction from the ear tissue and quantitative PCR were performed as follows. Specifically, ear tissue 5 mm in diameter was punched from an area of the resected ear centering on the IL-23 injection site, and the tissue was immersed in RNAlater (QIAGEN) for at least 18 hr. The RNAlater-treated ear tissue was homogenized in 350 μL of RLT buffer (RNeasy mini kit, QIAGEN) and treated (55° C., 10 min) with Proteinase K (QIAGEN). Total RNA was then extracted according to the RNeasy mini kit protocol. The RNA thus obtained was then reverse transcribed into cDNA using the High-Capacity RNA-to-cDNA kit (Applied Biosystems), and the amount of each gene expressions was measured by real-time PCR (Viia7™, Applied Biosystems). The PCR buffer used was TaqMan Fast Advanced Master Mix (Applied Biosystems), and TaqMan Gene Expression Assays (Applied Biosystems) Mm00439618_m1 (IL-17A) and 4352341E (β-actin) were used for each gene detection. The IL-17A gene expression level was normalized to the β-actin gene expression level, and the percent inhibition of IL-17A gene expression with the test compound was then calculated.
The results (percent inhibition of IL-17A gene expression with oral administration of the test compound) measured by the above-mentioned method are shown in Table 9.

Test [4] has as its system IL-17 production in human blood. Kind of test: Effect on IL-17 production in human blood. It counts as cell-based. The note with it: 72 h; 10 μM test compound; human peripheral blood, IL-23 and Dynabeads stimulation, 3 days; read-out: percent inhibition at 10 μM (IL-17 production). As for the experimental part:
Effect on IL-17 Production in Human Blood
The inhibitory effect of the test compound on IL-17 production in human blood was evaluated as follows. First, 150 μL of peripheral blood collected from healthy individuals using heparinized vacuum blood collection tubes was dispensed into each well of a 96-well plate (Corning), and 45 μL of RPMI 1640 medium (Gibco) containing 10% fetal bovine serum (FBS, Hyclone) and 30 μL of the test compound diluted with the medium were added to each well. The plate was then cultured for 30 min at 37° C. The cells were subsequently stimulated by adding 30 μL of 100 ng/mL human IL-23 (R&D) and 45 μL of Dynabeads Human (Invitrogen) to each well and culturing the plate for 3 days at 37° C. In wells without stimulation, 75 μL of RPMI 1640 medium containing 10% FBS was added instead of the IL-23 and Dynabeads solution. After culturing for 3 days, the culture supernatant was collected, and the amount of IL-17 in the supernatant was measured using an IL-17 ELISA kit (R&D).
The results (percent inhibition of IL-17 production with 10 μM of the test compound) measured by the above-mentioned method are shown in Table 8.

Structures are written as SMILES. Where two headings read alike, the source gives them in different places.

With `COc1ccc2c(n1)CCN(C(=O)[C@H]1C[C@@H]1CC(=O)O)[C@H]2C(=O)Nc1cc(F)c([Si](C)(C)C)c(F)c1` [Example 13, ((1R,2S)-2-(((5R)-5-((3,5-difluoro-4-(trimethylsilyl)phenyl)carbamoyl)-2-methoxy-7,8-dihydro-1,6-naphthyridin-6(5H)-yl)carbonyl)cyclopropyl)acetic acid], the inhibition at 1 µM on RORγt [1] was 102%; at RORγt [2], 83%. The inhibition at 3 µM at RORγt [3] came to 104%. The “percent inhibition of IL-17A gene expression” value (from here on “percent inhibition”) in the test on IL-17A gene expression turned out to be 91%.
Regarding `CCOCC(C)(C)c1c(F)cc(NC(=O)[C@H]2c3ccc(OCC)cc3CCN2C(=O)[C@H]2C[C@@H](CC(=O)O)C2)cc1F` [Example 18, (cis-3-(((1R)-6-ethoxy-1-((4-(1-ethoxy-2-methylpropan-2-yl)-3,5-difluorophenyl)carbamoyl)-3,4-dihydroisoquinolin-2(1H)-yl)carbonyl)cyclobutyl)acetic acid], the inhibition at 1 µM amounted to 101% on RORγt [1] (test compound 1 μM) and 70% at RORγt [2] (test compound 1 μM). The inhibition at 3 µM on RORγt [3] (Jurkat) was 97%. Further, the inhibition at 10 µM in test [4] was 80%.
`COc1ccc2c(n1)CCN(C(=O)[C@H]1C[C@H](CC(=O)O)C1)[C@H]2C(=O)Nc1cc(F)c2c(c1)CCC2(C)C` [Example 20, (trans-3-(((5R)-5-((7-fluoro-1,1-dimethyl-2,3-dihydro-1H-inden-5-yl)carbamoyl)-2-methoxy-7,8-dihydro-1,6-naphthyridin-6(5H)-yl)carbonyl)cyclobutyl)acetic acid]: the “percent inhibition” value in the test with IL-17A gene expression amounted to 99%.
Consider `COCc1ccc2c(c1)CCN(C(=O)[C@H]1C[C@H](CC(=O)O)C1)[C@H]2C(=O)Nc1cc(F)c2c(c1)CCC2(C)C` [Example 24, (trans-3-(((1R)-1-((7-fluoro-1,1-dimethyl-2,3-dihydro-1H-inden-5-yl)carbamoyl)-6-(methoxymethyl)-3,4-dihydroisoquinolin-2(1H)-yl)carbonyl)cyclobutyl)acetic acid], for which the inhibition at 1 µM at RORγt [1] (test compound 1 μM) worked out at 101%; on RORγt [2] (test compound 1 μM), 80%. Besides, the inhibition at 3 µM on RORγt [3] (Jurkat) came out at 101%. Moreover, in test [4], the inhibition at 10 µM was 92.7%.
On to `COc1ccc2c(c1)CCN(C(=O)[C@H]1C[C@@H](CC(=O)O)C1)[C@H]2C(=O)Nc1cc(F)c([Si](C)(C)C)c(F)c1` [Example 25, (cis-3-(((1R)-1-((3,5-difluoro-4-(trimethylsilyl)phenyl)carbamoyl)-6-methoxy-3,4-dihydroisoquinolin-2(1H)-yl)carbonyl)cyclobutyl)acetic acid], for which the results for the inhibition at 1 µM at RORγt [1] and on RORγt [2] were 102% and 93%, respectively. Further, the inhibition at 3 µM on RORγt [3] is 101%. In addition, the “percent inhibition” value with IL-17A gene expression was 92%.
For `COc1ccc2c(c1)CCN(C(=O)[C@H]1C[C@@H](C(=O)O)C1)[C@H]2C(=O)Nc1ccc([Si](C)(C)C)c(F)c1` [Example 32, cis-3-(((1R)-1-((3-fluoro-4-(trimethylsilyl)phenyl)carbamoyl)-6-methoxy-3,4-dihydroisoquinolin-2(1H)-yl)carbonyl)cyclobutanecarboxylic acid] the same measures were 102%, 91%, 101% and 83%.
`COc1ccc2c(n1)CCN(C(=O)[C@H]1C[C@@H](C(=O)OC)C1)[C@H]2C(=O)Nc1cc(F)c2c(c1)CCC2(C)C` [Example 46, methyl cis-3-(((5R)-5-((7-fluoro-1,1-dimethyl-2,3-dihydro-1H-inden-5-yl)carbamoyl)-2-methoxy-7,8-dihydro-1,6-naphthyridin-6(5H)-yl)carbonyl)cyclobutanecarboxylate]: the inhibition at 1 µM on RORγt [1] (test compound 1 μM) amounted to 102%; on RORγt [2] (test compound 1 μM) it was 69%. Further, on RORγt [3] (Jurkat), the inhibition at 3 µM is 102%.

Values taken from patent US10093629B2, “Heterocyclic compounds and their use as retinoid-related orphan receptor (ROR) gamma-T inhibitors” (Takeda Pharmaceutical Company Limited, priority 2014, dated 2018).
